Reference: patent publication US20250206732A1, “COMPOUNDS AND METHODS FOR THE TARGETED DEGRADATION OF KRAS” (Arvinas Operations, Inc., priority 2022, published 2025)

Molecular target: T1, AsPC-1 HiBiT-KRASG12D (Homo sapiens, UniProt P01116, G12D)
T1 construct: insert the HiBiT tag onto the N-terminus of one or more of the endogenous KRAS alleles; endogenous in cells; host or cells: AsPC-1 (ATCC CRL-1682), CRISPR-Cas9 knock-in clone, one tagged allele
Assay: HiBiT degradation assay (G12D), AsPC-1 HiBiT-KRASG12D cells
Type: cell-based
Details: 24 hours treatment; for Dmax: ASPC1, AsPC-1 HiBiT-KRASG12D cells, maximum degradation observed; for DC50: AsPC-1 HiBiT-KRASG12D cells, HiBiT luminescence
Method in brief: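 Endogenous KRASG12D levels were measured via an N-terminal HiBiT tag knocked into AsPC-1 cells. Cells received compound titrations for 24 hours, and HiBiT luminescence was detected after a 45-minute lytic reagent incubation at room temperature.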

T1 sequence (P01116 1-188 isoform P01116-2 G12D): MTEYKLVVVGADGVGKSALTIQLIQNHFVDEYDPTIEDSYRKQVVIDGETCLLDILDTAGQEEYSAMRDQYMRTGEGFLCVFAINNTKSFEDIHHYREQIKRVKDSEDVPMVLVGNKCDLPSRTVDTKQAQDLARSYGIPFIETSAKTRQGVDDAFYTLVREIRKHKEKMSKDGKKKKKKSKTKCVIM

SMILES	Dmax [%]	DC50 [µM]
CCc1cccc2cc(O)cc(-c3ncc4c(N5CCCCCC5)nc(OC[C@]56CCCN5[C@H](COC(=O)N5CC(Oc7cc([C@@H](C(=O)N8C[C@H](O)C[C@H]8C(=O)N[C@@H](C)c8ccc(-c9scnc9C)cc8)C(C)C)on7)C5)CC6)nc4c3F)c12 [Compound 305]	20 to 60	0.6 to 1
CCc1cccc2cc(O)cc(-c3ncc4c(N5CC6CCC(C5)N6)nc(OCCN5CCC(CN6CCN(c7cc([C@H](C(=O)N8C[C@H](O)C[C@H]8C(=O)N[C@@H](C)c8ccc(-c9ccnn9C)cc8)C(C)C)on7)CC6)CC5)nc4c3F)c12 [Compound 191, (2S,4R)-1-[(2R)-2-(3-{4-[(1-{2-[(4-{3,8-diazabicyclo[3.2.1]octan-3-yl}-7-(8-ethyl-3-hydroxynaphthalen-1-yl)-8-fluoropyrido[4,3-d]pyrimidin-2-yl)oxy]ethyl}piperidin-4-yl)methyl]piperazin-1-yl}-1,2-oxazol-5-yl)-3-methylbutanoyl]-4-hydroxy-N-[(1S)-1-[4-(1-methyl-1H-pyrazol-5-yl)phenyl]ethyl]pyrrolidine-2-carboxamide]	80 to 100	< 0.6
CCc1cccc2cc(O)cc(-c3ncc4c(N5CC6CCC(C5)N6)nc(OCCN5CCC(CN6CCN(c7cnc(C(=O)N[C@H](C(=O)N8C[C@H](O)C[C@H]8C(=O)N[C@@H](C)c8ccc(-c9scnc9C)cc8)C(C)(C)C)cn7)CC6)CC5)nc4c3F)c12 [Compound 293]	60 to 80	< 0.6
C#Cc1c(F)ccc2cc(O)cc(-c3ncc4c(N5CC6CCC(C5)N6)nc(OCCN5CCC(F)(COc6cc([C@H](C(=O)N7C[C@H](O)C[C@H]7C(=O)N[C@@H](C)c7ccc(-c8scnc8C)cc7)C(C)C)on6)CC5)nc4c3F)c12 [Compound 153, (2S,4R)-1-[(2R)-2-{3-[(1-{2-[(4-{3,8-diazabicyclo[3.2.1]octan-3-yl}-7-(8-ethynyl-7-fluoro-3-hydroxynaphthalen-1-yl)-8-fluoropyrido[4,3-d]pyrimidin-2-yl)oxy]ethyl}-4-fluoropiperidin-4-yl)methoxy]-1,2-oxazol-5-yl}-3-methylbutanoyl]-4-hydroxy-N-[(1S)-1-[4-(4-methyl-1,3-thiazol-5-yl)phenyl]ethyl]pyrrolidine-2-carboxamide]	80 to 100	< 0.6
CCc1cccc2cc(O)cc(-c3ncc4c(N5CC6CCC(C5)N6)nc(OC[C@H]5CC[C@@]6(COC(=O)N7CCN(c8cc([C@H](C(=O)N9C[C@H](O)C[C@H]9C(=O)N[C@@H](C)c9ccc(-c%10scnc%10C)cc9)C(C)C)on8)CC7)CCCN56)nc4c3F)c12 [Compound 343, [(3R,8R)-3-[[4-(3,8-diazabicyclo[3.2.1]octan-3-yl)-7-(8-ethyl-3-hydroxy-1-naphthyl)-8-fluoro-pyrido[4,3-d]pyrimidin-2-yl]oxymethyl]-1,2,3,5,6,7-hexahydropyrrolizin-8-yl]methyl 4-[5-[(1R)-1-[(2S,4R)-4-hydroxy-2-[[(1S)-1-[4-(4-methylthiazol-5-yl)phenyl]ethyl]carbamoyl]pyrrolidine-1-carbonyl]-2-methyl-propyl]isoxazol-3-yl]piperazine-1-carboxylate]	80 to 100	< 0.6
CCc1cccc2cc(O)cc(-c3ncc4c(N5CC6CCC(C5)N6)nc(OCCN5CCC(CC6CCN(CC(=O)N[C@H](C(=O)N7C[C@H](O)C[C@H]7C(=O)N[C@@H](C)c7ccc(-c8scnc8C)cc7)C(C)(C)C)CC6)CC5)nc4c3F)c12 [Compound 274, (2S,4R)-1-[(2S)-2-(2-{4-[(1-{2-[(4-{3,8-diazabicyclo[3.2.1]octan-3-yl}-7-(8-ethyl-3-hydroxynaphthalen-1-yl)-8-fluoropyrido[4,3-d]pyrimidin-2-yl)oxy]ethyl}piperidin-4-yl)methyl]piperidin-1-yl}acetamido)-3,3-dimethylbutanoyl]-4-hydroxy-N-[(1S)-1-[4-(4-methyl-1,3-thiazol-5-yl)phenyl]ethyl]pyrrolidine-2-carboxamide]	60 to 80	< 0.6
